Legend:
[1] = test system: mouse sound-induced convulsion model; assay: Mouse sound-induced convulsion model (tonic convulsion, hindlimb extension); assay type: in vivo; conditions: 0.5 h, DBA/2 JJcl mice, oral, sound stimulation 30 minutes after administration, % Tonic convulsion, regression analysis
Method: A mouse sound-induced convulsion model test was carried out to confirm the suppressive effect on convulsions. Tonic convulsion induced by sound stimulation is used as the index for evaluation in this model (European Journal of Pharmacology, 222, p 193-203(1992)).
Three-week-old male DBA/2 JJcl mice (Clea Japan, Inc.) were provided for the test (n=5 for each treatment, total 2 times). Tonic convulsion induced by sound stimulation was used as the indicator for evaluation (see aforementioned publication).
Compound (Ia) and/or compound (11) was dissolved in a 0.4% methyl cellulose/5% cremophor/5% IN hydrochloric acid/10% dimethyl sulfoxide solution for an administered dose of 20 mL/kg each to prepare samples which were orally administered. A mixed solution without the compound (vehicle) was used as a negative control. Sound stimulation (11 kHz, 115 dB, duration: 30 sec) was carried out 30 minutes after administration of the samples, to induce convulsions. Immediately after cessation of the sound stimulation, tonic convulsion was evaluated by observing the presence or absence of hindlimb extension. […]

mouse kindling models = conditions: PTL 1; cited from earlier work

SMILES	ED50 [1] [mg/kg]	effect on seizure severity (score) (mouse kindling models)
N#Cc1ccccc1-c1cc(-c2ccccn2)cn(-c2ccccc2)c1=O [compound (II), 3-(2-cyanophenyl)-5-(2-pyridyl)-1-phenyl-1,2-dihydropyridin-2-one, reference compound]	0.33	
NS(=O)(=O)N[C@H]1c2c(F)cc(F)cc2CC1(F)F [compound (Ia), N-[(1S)-2,2,5,7-tetrafluoro-2,3-dihydro-1H-inden-1-yl]sulfamide]	53	ameliorating effect
NS(=O)(=O)N[C@H]1c2c(F)ccc(F)c2CC1(F)F [compound (Ib), N-[(1S)-2,2,4,7-tetrafluoro-2,3-dihydro-1H-inden-1-yl]sulfamide]		ameliorating effect
NS(=O)(=O)N[C@H]1c2c(F)c(F)cc(F)c2CC1(F)F [compound (Ic), (+)-N-(2,2,4,6,7-pentafluoro-2,3-dihydro-1H-inden-1-yl)sulfamide]		ameliorating effect

Reference: patent US11660275B2, “Epilepsy treatment agent” (Eisai R&D Management Co., Ltd., priority 2018, dated 2023)
